The target in the test is T1, recombinant CETP (rCETP) (Homo sapiens, UniProt P11597).
T1 sequence (P11597 18-493): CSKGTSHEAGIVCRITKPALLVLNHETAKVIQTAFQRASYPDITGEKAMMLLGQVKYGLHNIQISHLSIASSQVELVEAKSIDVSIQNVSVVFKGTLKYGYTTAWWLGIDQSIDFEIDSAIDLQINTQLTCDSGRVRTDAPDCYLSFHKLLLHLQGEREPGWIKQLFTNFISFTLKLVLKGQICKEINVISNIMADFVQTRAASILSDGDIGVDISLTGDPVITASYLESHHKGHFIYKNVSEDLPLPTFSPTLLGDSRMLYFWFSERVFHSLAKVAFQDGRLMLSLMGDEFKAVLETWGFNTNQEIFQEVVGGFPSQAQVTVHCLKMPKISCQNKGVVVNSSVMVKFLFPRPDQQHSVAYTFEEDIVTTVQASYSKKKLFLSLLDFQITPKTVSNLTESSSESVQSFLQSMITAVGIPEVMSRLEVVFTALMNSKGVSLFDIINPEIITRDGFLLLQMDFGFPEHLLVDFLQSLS
Kind of test: RTA assay using recombinant CETP (2% RTA). It counts as biochemical. Conditions: RTA assay in 2% human serum; read-out: IC50. The method, boiled down: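 Compounds preincubated 1 h at 37 °C with assay cocktail (CETP buffer: 50 mM Tris pH 7.4, 100 mM NaCl, 1 mM EDTA; human HDL acceptor); transfer started with [3H]cholesteryl oleate- or [3H]triolein-labelled LDL, 60 min at 37 °C. LDL PEG-precipitated; supernatant counted by scintillation, blank-corrected; IC50 from 4-parameter sigmoidal fit of % inhibition vs DMSO control.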

pIC50: −log10 of the molar value.

Broadly, the pIC50 is the negative decadic logarithm of the IC50, by convention in mol/L.

As for `CCOC(=O)CCc1ccc(OC)c(-c2ccc(N3CCC3)nc2CN2C(=O)O[C@H](c3cc(C)cc(C)c3)[C@@H]2C)c1` [Example 198], the pIC50 is 7.30.
The same measure for `CCOC(=O)CCc1ccc(OC)c(-c2ccc(N3CCC3)nc2CN2C(=O)O[C@H](c3cccc(C)c3)[C@@H]2C)c1` [Example 199]: 6.63; for `COc1ccc([C@H]2CC[C@H](C(=O)OC)CC2)cc1-c1ccc(N2CCC2)nc1CN1C(=O)O[C@H](c2cc(C)cc(C)c2)[C@@H]1C` [Example 200]: 7.26; for `COc1ccc([C@H]2CC[C@H](C(=O)OC)CC2)cc1-c1ccc(N2CCC2)nc1CN1C(=O)O[C@H](c2cccc(C)c2)[C@@H]1C` [Example 201]: 6.78.
Next, `COC(=O)CC(C)(C)c1ccc(OC)c(-c2ccc(N3CCC3)nc2CN2C(=O)O[C@H](c3cc(C)cc(C)c3)[C@@H]2C)c1` [Example 202]: 7.80; `COC(=O)CC(C)(C)c1ccc(OC)c(-c2ccc(N3CCC3)nc2CN2C(=O)O[C@H](c3cccc(C)c3)[C@@H]2C)c1` [Example 203]: 6.97.
The same measure for `CCOC(=O)C[C@@H]1CCc2cc(OC)c(-c3ccc(N4CCC4)nc3CN3C(=O)O[C@H](c4cccc(C(F)(F)F)c4)[C@@H]3C)cc21` [Example 204]: 6.94.
Consider `CCOC(=O)C[C@@H]1CCc2cc(OC)c(-c3ccc(N4CCC4)nc3CN3C(=O)O[C@H](c4cc(C)cc(C)c4)[C@@H]3C)cc21` [Example 205], for which the pIC50 is 7.27.
With `CCOC(=O)C[C@@H]1CCc2cc(OC)c(-c3ccc(N4CCC4)nc3CN3C(=O)O[C@H](c4cccc(C)c4)[C@@H]3C)cc21` [Example 206], the pIC50 is 6.69.
The same measure for `CCOC(=O)[C@@H]1C[C@H]1c1ccc(OC)c(-c2ccc(N3CCC3)nc2CN2C(=O)O[C@H](c3cccc(C(F)(F)F)c3)[C@@H]2C)c1` [Example 207]: 7.36; for `CCOC(=O)[C@@H]1C[C@H]1c1ccc(OC)c(-c2ccc(N3CCC3)nc2CN2C(=O)O[C@H](c3cc(C)cc(C)c3)[C@@H]2C)c1` [Example 208]: 7.60.
Next, `CCOC(=O)[C@@H]1C[C@H]1c1ccc(OC)c(-c2ccc(N3CCC3)nc2CN2C(=O)O[C@H](c3cccc(C)c3)[C@@H]2C)c1` [Example 209]: 7.00.
Next, `COC(=O)c1ccc(-c2ccc(OC)c(-c3ccc(N4CCC4)nc3CN3C(=O)O[C@H](c4cccc(C(F)(F)F)c4)[C@@H]3C)c2)c(C)c1` [Example 210]: 7.66.
Turning to `COC(=O)c1ccc(-c2ccc(OC)c(-c3ccc(N4CCC4)nc3CN3C(=O)O[C@H](c4cc(C)cc(C)c4)[C@@H]3C)c2)c(C)c1` [Example 211], the negative-log IC50 (pIC50) is 7.64.
As to `COC(=O)c1ccc(-c2ccc(OC)c(-c3ccc(N4CCC4)nc3CN3C(=O)O[C@H](c4cccc(C)c4)[C@@H]3C)c2)c(C)c1` [Example 212], the pIC50 is 7.12.
The same measure for `COC(=O)CCc1ccc(OC2CC2)c(-c2ccc(N3CCC3)nc2CN2C(=O)O[C@H](c3cc(C(F)(F)F)cc(C(F)(F)F)c3)[C@@H]2C)c1` [Example 213]: 7.85.
For the compound `COC(=O)CCc1ccc(OC2CC2)c(-c2c(C)cc(N3CCC3)nc2CN2C(=O)O[C@H](c3cc(C(F)(F)F)cc(C(F)(F)F)c3)[C@@H]2C)c1` [Example 215], the pIC50 was 8.22.
For the compound `COc1ccc([C@H]2CC[C@H](C(=O)O)CC2)cc1-c1ccc(N2CCC2)nc1CN1C(=O)O[C@H](c2cccc(C(F)(F)F)c2)[C@@H]1C` [Example 219], the pIC50 is 7.36.
As for `COc1ccc(C(C)(C)CC(=O)O)cc1-c1ccc(N2CCC2)nc1CN1C(=O)O[C@H](c2cccc(C(F)(F)F)c2)[C@@H]1C` [Example 220], the pIC50 was 6.48.
The same measure for `COc1ccc(CC(C)(C)C(=O)O)cc1-c1ccc(N2CCC2)nc1CN1C(=O)O[C@H](c2cccc(C(F)(F)F)c2)[C@@H]1C` [Example 221]: 6.84; for `COc1ccc(CCC(=O)O)cc1-c1ccc(N2CCC2)nc1CN1C(=O)O[C@H](c2cccc(C)c2)[C@@H]1C` [Example 223]: 6.54.
The same measure for `COc1ccc([C@H]2CC[C@H](C(=O)O)CC2)cc1-c1ccc(N2CCC2)nc1CN1C(=O)O[C@H](c2cc(C)cc(C)c2)[C@@H]1C` [Example 224]: 7.85; for `COc1ccc([C@H]2CC[C@H](C(=O)O)CC2)cc1-c1ccc(N2CCC2)nc1CN1C(=O)O[C@H](c2cccc(C)c2)[C@@H]1C` [Example 225]: 7.18.
Next, `COc1ccc(C(C)(C)CC(=O)O)cc1-c1ccc(N2CCC2)nc1CN1C(=O)O[C@H](c2cc(C)cc(C)c2)[C@@H]1C` [Example 226]: 6.96; `COc1ccc(CC(C)(C)C(=O)O)cc1-c1ccc(N2CCC2)nc1CN1C(=O)O[C@H](c2cc(C)cc(C)c2)[C@@H]1C` [Example 227]: 7.19.
For the compound `COc1ccc(CCC(=O)O)cc1-c1ccc(N2CCC2)nc1CN1C(=O)O[C@H](c2cc(C)cc(C)c2)[C@@H]1C` [Example 228, 3-[3-(6-azetidin-1-yl-2-{[(4S,5R)-5-(3,5-dimethylphenyl)-4-methyl-2-oxo-1,3-oxazolidin-3-yl]methyl}pyridin-3-yl)-4-methoxyphenyl]propanoic acid], the pIC50 was 7.33.
For the compound `COc1cc2c(cc1-c1ccc(N3CCC3)nc1CN1C(=O)O[C@H](c3cccc(C(F)(F)F)c3)[C@@H]1C)[C@H](CC(=O)O)CC2` [Example 229], the pIC50 is 6.79.
Next, `COc1cc2c(cc1-c1ccc(N3CCC3)nc1CN1C(=O)O[C@H](c3cc(C)cc(C)c3)[C@@H]1C)[C@H](CC(=O)O)CC2` [Example 230]: 7.02.
Regarding `COc1cc2c(cc1-c1ccc(N3CCC3)nc1CN1C(=O)O[C@H](c3cccc(C)c3)[C@@H]1C)[C@H](CC(=O)O)CC2` [Example 231], the pIC50 was 6.39.
The same measure for `COc1ccc([C@@H]2C[C@H]2C(=O)O)cc1-c1ccc(N2CCC2)nc1CN1C(=O)O[C@H](c2cccc(C(F)(F)F)c2)[C@@H]1C` [Example 232]: 7.27; for `COc1ccc([C@@H]2C[C@H]2C(=O)O)cc1-c1ccc(N2CCC2)nc1CN1C(=O)O[C@H](c2cc(C)cc(C)c2)[C@@H]1C` [Example 233]: 7.42; for `COc1ccc([C@@H]2C[C@H]2C(=O)O)cc1-c1ccc(N2CCC2)nc1CN1C(=O)O[C@H](c2cccc(C)c2)[C@@H]1C` [Example 234]: 6.57.
Next, `COc1ccc(-c2ccc(C(=O)O)cc2C)cc1-c1ccc(N2CCC2)nc1CN1C(=O)O[C@H](c2cccc(C(F)(F)F)c2)[C@@H]1C` [Example 235]: 8.22; `COc1ccc(-c2ccc(C(=O)O)cc2C)cc1-c1ccc(N2CCC2)nc1CN1C(=O)O[C@H](c2cc(C)cc(C)c2)[C@@H]1C` [Example 236]: 7.89.
Next, `COc1ccc(-c2ccc(C(=O)O)cc2C)cc1-c1ccc(N2CCC2)nc1CN1C(=O)O[C@H](c2cccc(C)c2)[C@@H]1C` [Example 237]: 8.00.
As to `COc1cc(F)c(-c2ccc(C(=O)O)cc2C)cc1-c1ccc(N2CCC2)nc1CN1C(=O)O[C@H](c2cc(C#N)cc(C(F)(F)F)c2)[C@@H]1C` [Example 247], the pIC50 was 7.36.
Take `C[C@H]1[C@@H](c2cc(C(F)(F)F)cc(C(F)(F)F)c2)OC(=O)N1Cc1nc(N2CCC2)ccc1-c1cc(CCC(=O)O)ccc1OC1CC1` [Example 248]: the pIC50 is 7.72.
On to `COc1ccc(CCC(N)=O)cc1-c1ccc(N2CCC2)nc1CN1C(=O)O[C@H](c2cc(C)cc(C)c2)[C@@H]1C` [Example 249, 3-[3-(6-azetidin-1-yl-2-{[(4S,5R)-5-(3,5-dimethylphenyl)-4-methyl-2-oxo-1,3-oxazolidin-3-yl]methyl}pyridin-3-yl)-4-methoxyphenyl]propanamide], for which the pIC50 was 6.98.
Next, `COc1ccc([C@@H]2C[C@H]2C(N)=O)cc1-c1ccc(N2CCC2)nc1CN1C(=O)O[C@H](c2cc(C)cc(C)c2)[C@@H]1C` [Example 250]: 7.27; `COc1ccc([C@H]2CC[C@H](C(N)=O)CC2)cc1-c1ccc(N2CCC2)nc1CN1C(=O)O[C@H](c2cccc(C(F)(F)F)c2)[C@@H]1C` [Example 251]: 7.62; `COc1ccc([C@@H]2C[C@H]2C(N)=O)cc1-c1ccc(N2CCC2)nc1CN1C(=O)O[C@H](c2cccc(C(F)(F)F)c2)[C@@H]1C` [Example 252]: 7.20.
Next, `COc1ccc([C@H]2CC[C@H](C(N)=O)CC2)cc1-c1ccc(N2CCC2)nc1CN1C(=O)O[C@H](c2cc(C)cc(C)c2)[C@@H]1C` [Example 253, trans-4-[3-(6-azetidin-1-yl-2-{[(4S,5R)-5-(3,5-dimethylphenyl)-4-methyl-2-oxo-1,3-oxazolidin-3-yl]methyl}pyridin-3-yl)-4-methoxyphenyl]cyclohexanecarboxamide]: 7.64; `COc1ccc(CC(N)=O)cc1-c1ccc(N2CCC2)nc1CN1C(=O)O[C@H](c2cc(C(F)(F)F)cc(C(F)(F)F)c2)[C@@H]1C` [Example 254, 2-{3-[6-azetidin-1-yl-2-({(4S,5R)-5-[3,5-bis(trifluoromethyl)phenyl]-4-methyl-2-oxo-1,3-oxazolidin-3-yl}methyl)pyridin-3-yl]-4-methoxyphenyl}acetamide]: 7.82.
Next, `COc1ccc([C@H]2CC[C@H](C#N)CC2)cc1-c1ccc(N2CCC2)nc1CN1C(=O)O[C@H](c2cc(C)cc(C)c2)[C@@H]1C` [Example 255]: 6.40.

The values above are taken from patent publication US9221834B2 (Merck Sharp & Dohme Corp., priority 2010, dated 2015).
